Results reported in the supplement of paper PMC10307832.

compound: CC1=NN=C(O1)C2=NN=C(C=C2)N3CCC(CC3)OC4=C(C=CC(=C4)F)Cl + Cc1nc(Nc2ncc(C(=O)Nc3c(C)cccc3Cl)s2)cc(N2CCN(CCO)CC2)n1 [Dasatinib] (partner 0.075 µM); assay: relative viability (nuclei count vs DMSO), 5 days (fraction); higher = more cells survive; settings: first compound 0.253 µM
Method in brief: (§1)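 One day after seeding in 1536-well plates, lung cancer cell lines were dosed by pin tool. Dosing was either single-drug or a fixed anchor-drug dose plus five library-drug doses (not always all listed) in √10 steps. After 5 days, nuclei were stained in one fix-and-stain step and counted on 4× images, and relative viability is the nuclei count of treated wells over that of vehicle wells, given as the median of duplicate plates.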

Row | Cell Line | relative viability
1 | NCI-H1734 | 0.496
2 | EPLC-272H | 0.35
3 | NCI-H3122 | 0.283
4 | NCI-H2009 | 0.309
5 | NCI-H520 | 0.258
6 | NCI-H1651 | 0.406
7 | NCI-H1993 | 0.537
8 | NCI-H2228 | 0.555
9 | HCC-15 | 0.497
10 | EKVX | 0.513
11 | LC-2-ad | 0.4
12 | NCI-H1666 | 0.612
13 | NCI-H2085 | 0.303
14 | PC-3 [JPC-3] | 0.944
15 | LOU-NH91 | 0.473

same assay, conditions: first compound 0.8 µM

Row | Cell Line | relative viability
16 | NCI-H1734 | 0.417
17 | EPLC-272H | 0.277
18 | NCI-H3122 | 0.313
19 | NCI-H2009 | 0.289
20 | NCI-H1651 | 0.394
21 | NCI-H1993 | 0.564
22 | NCI-H2228 | 0.412
23 | HCC-15 | 0.453
24 | EKVX | 0.464
25 | LC-2-ad | 0.389
26 | NCI-H1666 | 0.526
27 | NCI-H2085 | 0.234
28 | NCI-H1650 | 0.342
29 | PC-3 [JPC-3] | 0.813
30 | LOU-NH91 | 0.517

same assay, conditions: first compound 2.53 µM

Row | Cell Line | relative viability
31 | NCI-H1734 | 0.477
32 | EPLC-272H | 0.404
33 | NCI-H3122 | 0.28
34 | NCI-H2009 | 0.307
35 | NCI-H520 | 0.211
36 | NCI-H1651 | 0.335
37 | NCI-H1993 | 0.768
38 | NCI-H2228 | 0.537
39 | HCC-15 | 0.499
40 | EKVX | 0.436
41 | LC-2-ad | 0.48
42 | NCI-H1666 | 0.58
43 | NCI-H2085 | 0.255
44 | NCI-H1650 | 0.335
45 | PC-3 [JPC-3] | 0.877
46 | LOU-NH91 | 0.512

same assay, conditions: first compound 8 µM

Row | Cell Line | relative viability
47 | NCI-H1734 | 0.401
48 | EPLC-272H | 0.302
49 | NCI-H3122 | 0.23
50 | NCI-H2009 | 0.327
51 | NCI-H520 | 0.222
52 | NCI-H1651 | 0.374
53 | NCI-H1993 | 0.549
54 | NCI-H2228 | 0.405
55 | HCC-15 | 0.472
56 | EKVX | 0.532
57 | LC-2-ad | 0.505
58 | NCI-H1666 | 0.543
59 | NCI-H2085 | 0.227
60 | NCI-H1650 | 0.28
61 | PC-3 [JPC-3] | 0.852
62 | LOU-NH91 | 0.509

compound: CC1=NN=C(O1)C2=NN=C(C=C2)N3CCC(CC3)OC4=C(C=CC(=C4)F)Cl + CC(C)C[C@H](NC(=O)[C@H](Cc1ccccc1)NC(=O)c1cnccn1)B(O)O [Bortezomib] (partner 0.002 µM); assay: as above; settings: first compound 0.253 µM
Method in brief: as §1

Row | Cell Line | relative viability
63 | NCI-H1734 | 0.65
64 | EPLC-272H | 0.667
65 | NCI-H3122 | 0.662
66 | NCI-H2009 | 0.555
67 | NCI-H520 | 0.378
68 | NCI-H1651 | 0.782
69 | NCI-H1993 | 0.922
70 | NCI-H2228 | 0.725
71 | HCC-15 | 0.485
72 | EKVX | 0.368
73 | LC-2-ad | 0.323
74 | NCI-H1666 | 0.419
75 | NCI-H2085 | 0.745
76 | PC-3 [JPC-3] | 0.519

same assay, conditions: first compound 0.8 µM

Row | Cell Line | relative viability
77 | NCI-H1734 | 0.592
78 | NCI-H3122 | 0.707
79 | NCI-H2009 | 0.426
80 | NCI-H520 | 0.5
81 | NCI-H1651 | 0.708
82 | NCI-H1993 | 0.901
83 | NCI-H2228 | 0.804
84 | HCC-15 | 0.407
85 | EKVX | 0.301
86 | LC-2-ad | 0.259
87 | NCI-H1666 | 0.851
88 | NCI-H2085 | 0.813
89 | NCI-H1650 | 0.202
90 | PC-3 [JPC-3] | 0.614
91 | LOU-NH91 | 0.517

same assay, conditions: first compound 2.53 µM

Row | Cell Line | relative viability
92 | NCI-H1734 | 0.824
93 | EPLC-272H | 1.05
94 | NCI-H3122 | 0.71
95 | NCI-H2009 | 0.523
96 | NCI-H520 | 0.518
97 | NCI-H1651 | 0.649
98 | NCI-H1993 | 0.925
99 | NCI-H2228 | 1.27
100 | HCC-15 | 0.415
101 | EKVX | 0.357
102 | LC-2-ad | 0.328
103 | NCI-H1666 | 0.756
104 | NCI-H2085 | 1.03
105 | NCI-H1650 | 0.17
106 | PC-3 [JPC-3] | 0.726
107 | LOU-NH91 | 0.479

same assay, conditions: first compound 8 µM

Row | Cell Line | relative viability
108 | NCI-H1734 | 0.805
109 | EPLC-272H | 0.996
110 | NCI-H3122 | 0.566
111 | NCI-H2009 | 0.493
112 | NCI-H520 | 0.542
113 | NCI-H1651 | 0.686
114 | NCI-H1993 | 0.966
115 | NCI-H2228 | 0.772
116 | HCC-15 | 0.395
117 | EKVX | 0.418
118 | LC-2-ad | 0.274
119 | NCI-H1666 | 0.57
120 | NCI-H2085 | 0.761
121 | NCI-H1650 | 0.197
122 | PC-3 [JPC-3] | 0.666
123 | LOU-NH91 | 0.436

compound: CC(C)C[C@@H](C(=O)N[C@H](C(=O)OC1CCCC1)c1ccccc1)[C@H](O)C(=O)NO [Tosedostat] + Nc1nc2[nH]cc(CCc3ccc(C(=O)N[C@@H](CCC(=O)O)C(=O)O)cc3)c2c(=O)[nH]1 [Pemetrexed] (partner 0.2 µM); assay: as above; settings: first compound 0.02 µM
Method in brief: as §1

Row | Cell Line | relative viability
124 | NCI-H1734 | 0.455
125 | EPLC-272H | 0.47
126 | NCI-H3122 | 0.206
127 | NCI-H2009 | 1.07
128 | NCI-H520 | 0.728
129 | NCI-H1651 | 0.586
130 | NCI-H1993 | 0.478
131 | NCI-H2228 | 0.328
132 | HCC-15 | 0.234
